Measured values published in patent US9744178B2, “Respirable agglomerates of porous carrier particles and micronized drug” (Novartis AG, priority 2013, dated 2017).

How the values were obtained:
[1] = Delivered dose uniformity from Concept1 dry powder inhaler; type: physicochemical; settings: each drug in respirable agglomerates Lot 11015A-7-6, size 3 hypromellose capsules, Concept1, 60 L/min, 2 L, on filter, RP-HPLC
Experimental: “Emitted Dose” or “ED” as used herein refers to an indication of the delivery of dry powder from an inhaler device after an actuation or dispersion event from a powder unit. ED is defined as the ratio of the dose delivered by an inhaler device to the nominal or metered dose. The ED is an experimentally determined parameter, and may be determined using an in vitro device set up which mimics patient dosing. It is sometimes also referred to as the Delivered Dose (DD). The ED is determined using a drug specific method such as high pressure liquid chromatography.
The bulk powder was filled into size 3 hypromellose capsules. The capsules were then individually filled into a Concept1 dry powder Inhaler (as described herein). The Concept1 Inhaler is a low resistance, capsule-based dry powder Inhaler. The device was emptied at a flow rate of 60 L/min and an inhaled volume of 2 L onto a filter. The mass of each Individual drug on the filter was quantitated by RP-HPLC. The total mass of powder on the filter was also determined gravimetrically.

[2] = Particle size (x50, x90) of micronized drug crystals; type: physicochemical; settings: micronized drug crystals used in the respirable agglomerates
Experimental: “Mass median diameter” or “MMD” or “×50” as used herein means the median diameter of a plurality of particles, typically in a polydisperse particle population, i.e., consisting of a range of particle sizes. MMD values as reported herein are determined by laser diffraction (Sympatec Helos, Clausthal-Zellerfeld, Germany), unless the context indicates otherwise.
An MMD or an ×50 (particle size distribution wherein 50% of the particles are sized smaller) of the micronized active ingredients should be less than about 3 micron (μm), preferably less than about 2 μm, or 1 μm. In embodiments of the invention, an ×50 is about 0.1-3 μm. An ×90 (particle size distribution wherein 90% of the particles are sized smaller) should be less than 7 μm, preferably less than 5 μm, or 3 μm.

[3] = Physical form of indacaterol acetate by X-ray powder diffraction; type: physicochemical; settings: for Physical stability of the salt form in water: suspended in water / aqueous feedstock to be spray-dried, acetate
Experimental: In the process of the present invention, an ordered mixture of micronized indacaterol acetate crystals and small porous particles are created by suspending the particles in a liquid perfluorocarbon, and then removing the liquid in a drying process. The physical form of the indacaterol acetate drug substance can be determined by X-ray powder diffraction (XRPD).
The pattern is dominated by the characteristic phospholipid peak at 20=21°. […] Peaks characteristic of indacaterol free base are not present.

β2-adrenoceptor = β2-adrenoceptor (Homo sapiens, UniProt P07550); settings: cited from earlier work
β2-adrenoceptor, sequence (P07550 whole entry, species assumed): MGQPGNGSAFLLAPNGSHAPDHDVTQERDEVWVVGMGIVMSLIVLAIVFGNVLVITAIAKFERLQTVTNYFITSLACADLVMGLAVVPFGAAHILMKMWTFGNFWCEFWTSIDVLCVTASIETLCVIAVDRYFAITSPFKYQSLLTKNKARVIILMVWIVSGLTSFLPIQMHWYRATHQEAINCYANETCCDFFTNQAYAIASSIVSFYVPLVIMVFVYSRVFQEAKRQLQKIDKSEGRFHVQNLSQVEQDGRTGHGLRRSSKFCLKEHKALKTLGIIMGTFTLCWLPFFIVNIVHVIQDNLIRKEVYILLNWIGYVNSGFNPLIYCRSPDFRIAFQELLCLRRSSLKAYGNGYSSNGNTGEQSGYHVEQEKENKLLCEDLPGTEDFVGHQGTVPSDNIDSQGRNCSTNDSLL

| Structure (SMILES) | Mean delivered dose (% nominal) [1] | ×50 [2] | ×90 [2] | Physical form after dispersion in PFOB ([3]; suspended in perfluorooctyl bromide, XRPD) | Physical stability of the salt form in water [3] | Physical stability of the salt form in water ([3]; listed as Indacaterol acetate) | Duration of action (β2-adrenoceptor) | Onset of action (β2-adrenoceptor) |
| --- | --- | --- | --- | --- | --- | --- | --- | --- |
| C[N+]1(C)CCC(OC(=O)C(O)(c2ccccc2)C2CCCC2)C1.[Br-] (centres unmarked) [Glycopyrronium bromide, 3-[(cyclopentyl-hydroxyphenyl-acetyl)oxy]-1,1-dimethylpyrrolidinium bromide] | 82.1 % nominal | 2.96 μm | 6.52 μm | – | – | – | – | – |
| CC(=O)O.CCc1cc2c(cc1CC)CC(NC[C@H](O)c1ccc(O)c3[nH]c(=O)ccc13)C2 [indacaterol acetate, (R)-5-[2-(5,6-diethyl-indan-2-ylamino)-1-hydroxyethyl]-8-hydroxy-1H-quinolin-2-one acetate] | 83.5 % nominal | 1.63 μm | 3.08 μm | salt form of the drug is maintained | rapidly disproportionates to form indacaterol free base and acetic acid | rapidly disproportionating to form indacaterol free base and acetic acid | – | – |
| CCc1cc2c(cc1CC)CC(NC[C@H](O)c1ccc(O)c3[nH]c(=O)ccc13)C2 [indacaterol, (R)-5-[2-(5,6-diethyl-indan-2-ylamino)-1-hydroxyethyl]-8-hydroxy-1H-quinolin-2-one] | – | – | – | – | – | – | over 24 hours | about 10 minutes |
| C[C@@H]1C[C@H]2[C@@H]3CCC4=CC(=O)C=C[C@]4(C)[C@@]3(Cl)[C@@H](O)C[C@]2(C)[C@@]1(OC(=O)c1ccco1)C(=O)CCl [mometasone furoate, (11β,16α)-9,21-dichloro-17-[(2-furanylcarbonyl)oxy]-11-hydroxy-16-methylpregna-1,4-diene-3,20-dione] | 84.8 % nominal | 1.22 μm | 2.45 μm | – | – | – | – | – |
